Results as given in article PMC4428793, “MK571 inhibits phase-2 conjugation of flavonols by Caco-2/TC7 cells, but does not specifically inhibit their apical efflux^” (Biochemical Pharmacology, 2015).

How the values were obtained:
Caco-2/TC7 cells = experiment: Flavonol metabolism and transport experiments on Caco-2/TC7 transwell monolayers, effect of MK571; assay type: cell-based, human; conditions: apical to basolateral ratio of efflux of the conjugate, 60 min, 12-well transwells
Protocol: Cells were grown at 37 °C in a humidified incubator with 5% CO2 in Dulbecco Modified Eagle's Medium (DMEM) containing 1% non-essential amino acids, 1% L-glutamine, 100 IU/mL penicillin and 100 μg/mL streptomycin, 1 g/L glucose, and supplemented with 20% (v/v) heat inactivated fetal calf serum. Cells were passaged at 80% confluency, and seeded at 2–4 × 10^4 cells per cm^2 on 10 cm dishes (growing area 75 cm^2) or 12-well transwells (growing area of 1.1 cm^2). […] Toxicity of MK571 on Caco-2/TC7 cell monolayers was determined through comparison of pre- and post-loading TEER values of wells incubated with MK571.
Flavonol stocks (quercetin, kaempferol, galangin; 10 mM) were prepared in dimethylsulfoxide (DMSO) and stored at −20 °C. MK571 was dissolved in dimethyl sulfoxide (10 mM final concentration) and stored at −20 °C. Prior to the metabolism or transport experiments, cells were aspirated of media and washed three times with phosphate buffered saline (PBS). To foetal calf serum and phenol red-free DMEM was added ascorbic acid at a final concentration of 100 μM as well as MK571 at the desired concentration. For metabolism experiments, 10 mL of this media was added to the cells in 10 cm dishes. For transport experiments using transwells, 0.6 mL of this media was added to the apical compartment of the transwell and 1 mL was added to the basolateral compartment. Control wells received an equivalent dose of dimethyl sulfoxide as the treatment wells. Cells were incubated at 37 °C for 30 min, after which flavonols dissolved in dimethyl sulfoxide (kaempferol, galangin or quercetin) were added to the media of treatment wells at a final concentration of 40 or 100 μM, while control wells were treated with the dimethyl sulfoxide vehicle alone. Concentrations of quercetin were increased to 100 μM because instability of quercetin in media necessitated higher initial loading to maintain adequate cellular and media concentrations for uptake and metabolism of the flavonol. Control and treatment cells were incubated at 37 °C for the periods indicated in the results.
Following the required incubation period, media and cell fractions were harvested and analysed to identify and quantify flavonol metabolites using HPLC. Media was removed from the apical (0.5 mL) and basolateral (0.5 mL) compartments of transwells and added to 25 μL trifluoroacetic acid and 25 μL HPLC grade acetonitrile. Media from 10 cm dishes (1 mL) was removed and added to 50 μL trifluoroacetic acid and 25 μL HPLC grade acetonitrile. Cells were washed three times with cold (room temperature) phosphate buffered saline solution and scraped free of the dish surface. For transwells, 100 μL MilliQ water was added to the cells and the resulting cell suspension pipetted into 10 μL trifluoroacetic acid and 10 μL HPLC grade acetonitrile. For 10 cm dishes, the resulting cell suspension was pipetted into 25 μL trifluoroacetic acid and 25 μL HPLC grade acetonitrile. Samples were either analysed immediately or otherwise stored at −20 °C prior to HPLC analysis. Flavonols were stable during frozen storage and thawing (no significant losses up to 26 weeks).
Media samples were thawed where necessary and then mixed using a vortex mixer, centrifuged for 10 min at 14,000 × g using a micro centrifuge, and the supernatant removed and placed in an HPLC vial for analysis. Cell samples were vortex-mixed and then ultra-sonicated (sonic water bath) for 10 min, vortex mixed again and then centrifuged for 10 min at 14,000 × g using a micro-centrifuge, before removal of supernatant for HPLC analysis. Identification and quantification of individual flavonol metabolites was carried out using liquid chromatography–mass spectrometry and nuclear magnetic resonance analyses, as described previously. […]

Caco-2/TC7 cell lysate = experiment: Flavonol conjugate production by Caco-2/TC7 cell free lysate, effect of MK571; assay type: biochemical, human; conditions: aglycone 40 μM; for Change in rate (%): MK571 50 μM vs control; for Rate +MK571 (conjugate production): MK571 50 μM; for Rate +MK571 (conjugate production) / Rate control (conjugate production): slope (standard error of the slope); for Rate control (conjugate production): no MK571
Protocol: Cells were grown until 21 days post confluent and washed and aspirated as described previously. The cells were then scraped into tubes and these tubes kept on ice at all times throughout the preparation procedure. Homogenisation buffer comprised of sodium phosphate buffer (50 mM adjusted to pH 6.5; 20 mL), two mini protease inhibitor cocktail tablets containing EDTA and perfabloc, dithiothreitol (30.8 mg), alamethacin (20 μL of a 22 μg/mL) solution from T. viride; and MgCl2 (3.5 mg). Cell-free homogenates were prepared by mixing cells with homogenisation buffer (50:50, vol/vol) and vortexing with glass beads in an eppendorf tube three times for 1 min over a 10 min period. To 900 μL of cell free lysate was added 10 μL uridine 5′-diphosphoglucuronic acid (4 mM final concentration) with uridine 5′-diphospho-N-acetyl-glucosamine (dissolved in homogenisation buffer, 2 mM final concentration); 10 μL MK571 (50 mmol/L stock diluted 1:9 with homogenisation buffer) or 10 μL dimethyl sulfoxide blank (diluted 1:9 with homogenisation buffer). The tubes were allowed to warm and once they reached 37 °C, the flavonols were added at the relevant concentration (kaempferol, quercetin or galangin; 10 mmol/L stock in dimethyl sulfoxide diluted 1:1 with homogenisation buffer, plus homogenisation buffer added to create a final volume of 1000 μL) and the tube vortexed briefly. The experiment was stopped by addition of a mixture of 50 μL trifluoracetic acid and 50 μL acetonitrile. Samples were then centrifuged for 10 min at 14,000 × g. The supernatant was removed and analysed via HPLC.

Row | Molecule | Ap:Bl ratio (50 μM MK571) (Caco-2/TC7 cells) | Ap:Bl ratio (No MK571) (Caco-2/TC7 cells) | Change in rate (%) (Caco-2/TC7 cell lysate) | Rate +MK571 (conjugate production) (Caco-2/TC7 cell lysate) | Rate control (conjugate production) (Caco-2/TC7 cell lysate) | Ap:Bl ratio (100 μM MK571) (Caco-2/TC7 cells)
1 | O=C(O)[C@H]1O[C@@H](Oc2c(-c3ccccc3)oc3cc(O)cc(O)c3c2=O)[C@H](O)[C@@H](O)[C@@H]1O [G-3-GlcA, galangin-3-glucuronide] | 0.35 (±0.091) | 0.24 (±0.033) | −63.2% | 25.3 (±2.30) pmol/h | 68.8 (±6.12) pmol/h | 
2 | O=C(O)C1OC(Oc2cc(O)cc3oc(-c4ccccc4)c(O)c(=O)c23)C(O)C(O)C1O (centres unmarked) [G-5-GlcA] | 0.30 (±0.024) | 0.19 (±0.020) |  |  |  | 
3 | O=C(O)[C@H]1O[C@@H](Oc2cc(O)c3c(=O)c(O)c(-c4ccccc4)oc3c2)[C@H](O)[C@@H](O)[C@@H]1O [G-7-GlcA, galangin-7-glucuronide] | 0.51 (±0.036) | 0.54 (±0.058) | −45.7% | 19.8 (±1.63) pmol/h | 36.5 (±1.49) pmol/h | 
4 | O=C(O)[C@H]1O[C@@H](Oc2c(-c3ccc(O)cc3)oc3cc(O)cc(O)c3c2=O)[C@H](O)[C@@H](O)[C@@H]1O [K-3-GlcA, kaempferol-3-glucuronide] |  |  | −19.3% | 1.40 (±0.08) pmol/h | 1.73 (±0.16) pmol/h | 
5 | O=C(O)[C@H]1O[C@@H](Oc2ccc(-c3oc4cc(O)cc(O)c4c(=O)c3O)cc2)[C@H](O)[C@@H](O)[C@@H]1O [K-4′-GlcA, kaempferol-4′-glucuronide] | 0.33 (±0.080) | 0.26 (±0.066) |  |  |  | 0.43 (±0.018)
6 | O=C(O)[C@H]1O[C@@H](Oc2cc(O)c3c(=O)c(O)c(-c4ccc(O)cc4)oc3c2)[C@H](O)[C@@H](O)[C@@H]1O [K-7-GlcA, kaempferol-7-glucuronide] | 0.35 (±0.063) | 0.28 (±0.044) | −38.2% | 0.69 (±0.02) pmol/h | 1.12 (±0.09) pmol/h | 0.44 (±0.021)
7 | O=C(O)[C@H]1O[C@@H](Oc2c(-c3ccc(O)c(O)c3)oc3cc(O)cc(O)c3c2=O)[C@H](O)[C@@H](O)[C@@H]1O [Q-3-GlcA] |  |  | −21.8% | 0.83 (±0.14) pmol/h | 1.05 (±0.09) pmol/h | 
8 | O=C(O)[C@H]1O[C@@H](Oc2cc(-c3oc4cc(O)cc(O)c4c(=O)c3O)ccc2O)[C@H](O)[C@@H](O)[C@@H]1O [Q-3′-GlcA] | 100% apical | 100% apical | +25.6% | 2.62 (±0.24) pmol/h | 2.09 (±0.12) pmol/h | 
9 | O=C(O)[C@H]1O[C@@H](Oc2ccc(-c3oc4cc(O)cc(O)c4c(=O)c3O)cc2O)[C@H](O)[C@@H](O)[C@@H]1O [Q-4′-GlcA] | 0.25 (±0.035) | 0.23 (±0.034) | +12.1% | 0.28 (±0.03) pmol/h | 0.25 (±0.01) pmol/h | 
10 | O=C(O)[C@H]1O[C@@H](Oc2cc(O)c3c(=O)c(O)c(-c4ccc(O)c(O)c4)oc3c2)[C@H](O)[C@@H](O)[C@@H]1O [Q-7-GlcA] |  |  | −31.8% | 1.29 (±0.26) pmol/h | 1.89 (±0.16) pmol/h | 
11 | galangin sulphate [G-S] | 9.10 (±0.783) | 13.6 (±1.440) |  |  |  | 
12 | kaempferol sulphate [K-S] | 3.92 (±0.646) | 3.02 (±0.230) |  |  |  | 0.14 (±0.006)
13 | kaempferol-sulfo-glucuronide [K-S-GlcA] | 0.42 (±0.121) | 0.59 (±0.174) |  | 0.34 (±0.02) pmol/h | 0.54 (±0.04) pmol/h | 0.43 (±0.028)
